The CheMixHub viscosity set
Where “and” joins values, the source holds several entries; their conditions need not be identical. Identical values can stand only once.

Assay: xn = mol fraction of the nth substance listed

C[C@H](N)C(=O)O + O
Conditions	viscosity
298 K, 101 kPa, x1 = 0.0004	0.887 mPa·s
298 K, 101 kPa, x1 = 0.0007	0.8925 mPa·s
298 K, 101 kPa, x1 = 0.001	0.8956 mPa·s
298 K, 101 kPa, x1 = 0.0018	0.9013 mPa·s
298.15 K, 100 kPa, x1 = 0.0004	0.8955 mPa·s
298.15 K, 100 kPa, x1 = 0.0007	0.8979 mPa·s
298.15 K, 100 kPa, x1 = 0.001	0.9003 mPa·s and 0.9029 mPa·s
298.15 K, 101 kPa, x1 = 0.000169	0.9489 mPa·s and 0.9489 mPa·s
298.15 K, 101 kPa, x1 = 0.00045	0.8958 mPa·s
298.15 K, 101 kPa, x1 = 0.0009	0.9013 mPa·s
298.15 K, 101 kPa, x1 = 0.00135	0.9069 mPa·s
298.15 K, 101 kPa, x1 = 0.00178	0.9677 mPa·s and 0.9677 mPa·s
298.15 K, 101 kPa, x1 = 0.0018	0.9126 mPa·s
298.15 K, 101 kPa, x1 = 0.002695	0.9242 mPa·s
298.15 K, 101 kPa, x1 = 0.003596	0.9759 mPa·s and 0.9759 mPa·s
298.15 K, 101 kPa, x1 = 0.005338	0.9871 mPa·s and 0.9871 mPa·s
298.15 K, 101 kPa, x1 = 0.01087	1.039 mPa·s and 1.039 mPa·s
298.15 K, 101 kPa, x1 = 0.0124	1.045 mPa·s and 1.045 mPa·s
298.15 K, 101 kPa, x1 = 0.01417	1.054 mPa·s and 1.054 mPa·s
303.15 K, 101 kPa, x1 = 0.00045	0.8023 mPa·s
303.15 K, 101 kPa, x1 = 0.0009	0.8076 mPa·s
303.15 K, 101 kPa, x1 = 0.00135	0.8128 mPa·s
303.15 K, 101 kPa, x1 = 0.0018	0.8182 mPa·s
303.15 K, 101 kPa, x1 = 0.001802	0.8176 mPa·s
303.15 K, 101 kPa, x1 = 0.002245	0.8235 mPa·s
303.15 K, 101 kPa, x1 = 0.002695	0.829 mPa·s
303.15 K, 101 kPa, x1 = 0.01069	0.9202 mPa·s
303.15 K, 101 kPa, x1 = 0.01245	0.9412 mPa·s
308.15 K, 101 kPa, x1 = 0.000169	0.7568 mPa·s and 0.7568 mPa·s
308.15 K, 101 kPa, x1 = 0.00045	0.7238 mPa·s
308.15 K, 101 kPa, x1 = 0.000844	0.7678 mPa·s and 0.7678 mPa·s
308.15 K, 101 kPa, x1 = 0.0009	0.7288 mPa·s
308.15 K, 101 kPa, x1 = 0.00135	0.7338 mPa·s
308.15 K, 101 kPa, x1 = 0.00178	0.7755 mPa·s and 0.7755 mPa·s
308.15 K, 101 kPa, x1 = 0.002245	0.7439 mPa·s
308.15 K, 101 kPa, x1 = 0.002695	0.749 mPa·s
308.15 K, 101 kPa, x1 = 0.003596	0.799 mPa·s and 0.799 mPa·s
308.15 K, 101 kPa, x1 = 0.005338	0.8044 mPa·s and 0.8044 mPa·s
308.15 K, 101 kPa, x1 = 0.007149	0.8133 mPa·s and 0.8133 mPa·s
308.15 K, 101 kPa, x1 = 0.008823	0.8201 mPa·s and 0.8201 mPa·s
308.15 K, 101 kPa, x1 = 0.01087	0.8366 mPa·s and 0.8366 mPa·s
308.15 K, 101 kPa, x1 = 0.0124	0.8431 mPa·s and 0.8431 mPa·s
308.15 K, 101 kPa, x1 = 0.01417	0.8612 mPa·s and 0.8612 mPa·s
313.15 K, 101 kPa, x1 = 0.00045	0.6571 mPa·s
313.15 K, 101 kPa, x1 = 0.0009	0.6618 mPa·s
313.15 K, 101 kPa, x1 = 0.00135	0.6666 mPa·s
313.15 K, 101 kPa, x1 = 0.0018	0.6714 mPa·s
313.15 K, 101 kPa, x1 = 0.002245	0.6761 mPa·s
313.15 K, 101 kPa, x1 = 0.002695	0.6809 mPa·s
313.15 K, 101 kPa, x1 = 0.005374	0.6994 mPa·s
313.15 K, 101 kPa, x1 = 0.008931	0.7316 mPa·s
313.15 K, 101 kPa, x1 = 0.01245	0.7659 mPa·s
318.15 K, 101 kPa, x1 = 0.000169	0.6345 mPa·s
318.15 K, 101 kPa, x1 = 0.00045	0.6014 mPa·s
318.15 K, 101 kPa, x1 = 0.000844	0.6454 mPa·s and 0.6454 mPa·s
318.15 K, 101 kPa, x1 = 0.0009	0.6059 mPa·s
318.15 K, 101 kPa, x1 = 0.00135	0.6104 mPa·s
318.15 K, 101 kPa, x1 = 0.00178	0.6589 mPa·s and 0.6589 mPa·s
318.15 K, 101 kPa, x1 = 0.0018	0.6149 mPa·s
318.15 K, 101 kPa, x1 = 0.002245	0.6195 mPa·s
318.15 K, 101 kPa, x1 = 0.002695	0.624 mPa·s
318.15 K, 101 kPa, x1 = 0.003596	0.6733 mPa·s and 0.6733 mPa·s
318.15 K, 101 kPa, x1 = 0.005338	0.6747 mPa·s and 0.6747 mPa·s
318.15 K, 101 kPa, x1 = 0.007149	0.6774 mPa·s and 0.6774 mPa·s
318.15 K, 101 kPa, x1 = 0.008823	0.699 mPa·s and 0.699 mPa·s
318.15 K, 101 kPa, x1 = 0.01087	0.7009 mPa·s and 0.7009 mPa·s
318.15 K, 101 kPa, x1 = 0.0124	0.7145 mPa·s and 0.7145 mPa·s
318.15 K, 101 kPa, x1 = 0.01417	0.7345 mPa·s and 0.7345 mPa·s
323.15 K, 101 kPa, x1 = 0.005374	0.5833 mPa·s
323.15 K, 101 kPa, x1 = 0.008931	0.6095 mPa·s
323.15 K, 101 kPa, x1 = 0.01069	0.6229 mPa·s
323.15 K, 101 kPa, x1 = 0.01245	0.6364 mPa·s

NN + O
Conditions	viscosity [mPa·s]
293.15 K, 101.3 kPa, x1 = 0.0526	1.11
293.15 K, 101.3 kPa, x1 = 0.1045	1.26
293.15 K, 101.3 kPa, x1 = 0.1502	1.4
293.15 K, 101.3 kPa, x1 = 0.2047	1.57
293.15 K, 101.3 kPa, x1 = 0.3013	1.8
293.15 K, 101.3 kPa, x1 = 0.3512	1.88
293.15 K, 101.3 kPa, x1 = 0.3967	1.96
293.15 K, 101.3 kPa, x1 = 0.4526	1.92
293.15 K, 101.3 kPa, x1 = 0.4938	1.89
293.15 K, 101.3 kPa, x1 = 0.5997	1.71
293.15 K, 101.3 kPa, x1 = 0.7032	1.51
293.15 K, 101.3 kPa, x1 = 0.8022	1.28
293.15 K, 101.3 kPa, x1 = 0.8961	1.11
303 K, 101 kPa, x1 = 0.1	1.009
303 K, 101 kPa, x1 = 0.2	1.181
303 K, 101 kPa, x1 = 0.3	1.357
303 K, 101 kPa, x1 = 0.4	1.364
303 K, 101 kPa, x1 = 0.55	1.43
303 K, 101 kPa, x1 = 0.6	1.41
303 K, 101 kPa, x1 = 0.7	1.34
303 K, 101 kPa, x1 = 0.8	1.21
303 K, 101 kPa, x1 = 0.9	1.02
313 K, 101 kPa, x1 = 0.1	0.869
313 K, 101 kPa, x1 = 0.2	0.989
313 K, 101 kPa, x1 = 0.3	1.138
313 K, 101 kPa, x1 = 0.4	1.148
313 K, 101 kPa, x1 = 0.55	1.19
313 K, 101 kPa, x1 = 0.6	1.17
313 K, 101 kPa, x1 = 0.7	1.1
313 K, 101 kPa, x1 = 0.8	0.98
313 K, 101 kPa, x1 = 0.9	0.83

O=C(O)c1ccccc1O + O
viscosity [mPa·s], 100 kPa
Conditions	x1 = 7.22e-05	x1 = 0.000108	x1 = 0.000143	x1 = 0.00018	x1 = 0.0002158	x1 = 0.0002516
293.15 K	1.008	1.011	1.013	1.015	1.017	1.019
298.15 K	0.896	0.899	0.901	0.902	0.904	0.906
303.15 K	0.803	0.806	0.807	0.809	0.81	0.812
308.15 K	0.725	0.727	0.729	0.73	0.732	0.733
313.15 K	0.659	0.661	0.662	0.664	0.665	0.666

O=[N+]([O-])[O-].[Li+] + O
100 kPa
Conditions	viscosity [mPa·s]
298.11 K, x1 = 0.0088	0.9305
298.18 K, x1 = 0.00475	0.9105
298.35 K, x1 = 0.01898	0.9846
298.45 K, x1 = 0.02699	1.04
306.75 K, x1 = 0.02699	0.8753
307.65 K, x1 = 0.01898	0.8088
307.85 K, x1 = 0.00475	0.746
308.95 K, x1 = 0.0088	0.7411

OC(O)C(Cl)(Cl)Cl + O
293.15 K, 101 kPa
Conditions	viscosity [mPa·s]
x1 = 0.026	1.276
x1 = 0.0441	1.631
x1 = 0.06	1.841

OC[C@@H](O)[C@@H](O)CO + O
viscosity [mPa·s], 101.3 kPa
Conditions	x1 = 0.003586	x1 = 0.007154	x1 = 0.01069	x1 = 0.01421	x1 = 0.0177	x1 = 0.02631	x1 = 0.03478	x1 = 0.0431	x1 = 0.05128
293.15 K	–	–	–	1.25	–	1.53	1.78	2.04	2.32
303.15 K	0.84	0.89	0.95	0.99	1.07	1.18	1.36	1.54	1.73
313.15 K	–	0.71	0.76	0.79	0.85	0.94	1.05	1.18	1.33
323.15 K	0.57	0.6	0.64	0.66	0.71	0.77	0.87	0.95	1.06

OC[C@@H](O)[C@@H](O[C@H]1O[C@H](CO)[C@@H](O)[C@H](O)[C@H]1O)[C@H](O)[C@@H](O)CO + O
Conditions	viscosity
293.15 K, 100 kPa, x1 = 0.06986	60.3 mPa·s
293.15 K, 101.3 kPa, x1 = 0.004	1.19 mPa·s
293.15 K, 101.3 kPa, x1 = 0.007	1.45 mPa·s
293.15 K, 101.3 kPa, x1 = 0.01	1.77 mPa·s
293.15 K, 101.3 kPa, x1 = 0.018	2.6 mPa·s
298.15 K, 100 kPa, x1 = 0.07553	62 mPa·s
303.15 K, 100 kPa, x1 = 0.08206	64 mPa·s
303.15 K, 101 kPa, x1 = 0.003592	0.9493 mPa·s
303.15 K, 101.3 kPa, x1 = 0.004	0.92 mPa·s
303.15 K, 101.3 kPa, x1 = 0.007	1.11 mPa·s
303.15 K, 101.3 kPa, x1 = 0.01	1.34 mPa·s
303.15 K, 101.3 kPa, x1 = 0.018	1.93 mPa·s
308.15 K, 100 kPa, x1 = 0.08946	67 mPa·s
313.15 K, 100 kPa, x1 = 0.09729	68 mPa·s
313.15 K, 101.3 kPa, x1 = 0.004	0.75 mPa·s
313.15 K, 101.3 kPa, x1 = 0.007	0.89 mPa·s
313.15 K, 101.3 kPa, x1 = 0.01	1.05 mPa·s and 1.27 mPa·s
313.15 K, 101.3 kPa, x1 = 0.018	1.49 mPa·s
318.15 K, 100 kPa, x1 = 0.1055	76 mPa·s
323.15 K, 100 kPa, x1 = 0.1147	79 mPa·s
323.15 K, 101 kPa, x1 = 0.003592	0.6401 mPa·s
323.15 K, 101 kPa, x1 = 0.007153	0.7457 mPa·s
323.15 K, 101.3 kPa, x1 = 0.004	0.62 mPa·s
323.15 K, 101.3 kPa, x1 = 0.007	0.73 mPa·s
323.15 K, 101.3 kPa, x1 = 0.01	0.86 mPa·s and 1.05 mPa·s
323.15 K, 101.3 kPa, x1 = 0.018	1.19 mPa·s
